Experimental data as given in patent US7235534B2, “Antisense strategy to modulate estrogen receptor response (ER α and/or ER β )” (Institut de Cardiologie de Montreal, priority 2001, dated 2007).

What was measured:
p38 MAPK = assay: Western blot of p38 MAPK phosphorylation in PSMC; format: cell-based, porcine; conditions: for reversal of the effect of 17βE on p38 MAPK induced by PDGF-BB: antagonist 10^−7M
Method: (§1) Confluent PAEC and PSMC were starved for 7 hours in DMEM and antibiotics. Culture medium was removed, and cells were rinsed twice with ice-cold DMEM. PSMC were incubated on ice in DMEM with or without 17βE (10^−8M) for 30 min, incubated at 37° C. for 5, 10, 15 and 30 min, then brought back on ice. Cell were then rinsed with cold DMEM, incubated on ice in DMEM, bovine serum albumin (1 mg/ml), PDGF-BB (10 ng/ml) for 30 min, incubated at 37° C. for 5 min, and then brought back on ice. PAEC were incubated on ice in DMEM with or without 17βE (10^−7M) for 30 min, then incubated at 37° C. for 5, 10, 15 and 30 min and brought back on ice. […] Total proteins were prepared by the addition of 500 μl of lysis buffer containing phenylmethylsulfonyl fluoride 1 mM, leupeptin 10 μg/ml, aprotinin 30 μg/ml, and NaVO3 1 mM (Sigma). Plates were incubated at 4° C. for 30 min and scraped, and the protein concentration was determined with a Bio-Rad protein kit (Bio-Rad, Hercules, Calif.). Same protein quantity for each cell type and condition were dissolved in Laemmli's buffer, boiled for 5 min in reducing conditions, separated by a 10% gradient SDS-PAGE (Protean II kit; Bio-Rad), and transblotted onto a 0.45-μm polyvinylidene difluoride membranes (Millipore Corp., Bedford, Mass.). The membranes were blocked in 5% Blotto-TTBS (5% nonfat dry milk; Bio-Rad), 0.05% Tween 20, 0.15 M NaCl, 25 mM Tris-HCl, pH 7.5) for 1 h at room temperature with gentle agitation and incubated overnight at 4° C. in 0.5% Blotto-TTBS with the addition of an anti-phospho p42/44 MAPK or an anti-phospho p38 MAPK rabbit polyclonal antiserums (α-pp42/44; dilution of 1:10 000, and α-pp38; dilution 1:5000, New England BioLabs, Beverly, Mass.). Membranes were washed with TTBS, and incubated at room temperature with an anti-rabbit IgG antibody coupled to horseradish peroxidase (dilution 1:10 000–1:20 000, Santa Cruz Biotechnology, Santa Cruz, Calif.) in 0.5% Blotto-TTBS for 30 min. […] Kaleidoscope molecular weight and SDS-plyacrylamide gel electrophoresis broad range marker proteins (Bio-Rad) were used as standards for SDS-plyacrylamide gel electrophoresis. Digital image densitometry (PDI Bioscience, Aurora, ON) was performed on x-ray film to determine relative percentages of p42/44 and p38 MAPK phosphorylation.
Confluent PAEC and PSMC were preteated with or without antisense sequences as described above for Western Blot analysis. Cells were rinsed twice with ice-cold DMEM. PSMC and PAEC were stimulated with or without 17βE (10^−8 mol/L) as previously described (Geraldes P). Briefly, PSMC were incubated on ice in DMEM with or without 17βE (10^−8 mol/L) for 30 minutes, incubated at 37° C. for 30 minutes, then brought back on ice. Cells were then rinsed with cold DMEM, incubated on ice in DMEM, bovine serum albumin (1 mg/mL), PDGF-BB (10 ng/mL) for 30 minutes, incubated at 37° C. for 5 and 30 minutes, and then brought back on ice. PAEC were incubated on ice in DMEM with or without 17βE (10^−8 mol/L) for 30 minutes, then incubated at 37° C. for 5 and 30 minutes and brought back on ice. Total proteins were prepared-by the addition of 500 μL of lysis buffer, incubated at 4° C. for 30 minutes and scraped to collect the proteins. Same quantity of protein was separated by a 10% gradient SDS-PAGE (Protean II kit; Bio-Rad), and transblotted onto a 0.45-μm polyvinylidene difluoride membranes (Millipore Corp.). The membranes were blocked for 1 hour at room temperature with gentle agitation and incubated overnight at 4° C. in 0.5% Blotto-TTBS with the addition of an antiphospho p42/44 MAPK or an antiphospho p38 MAPK rabbit polyclonal antiserums (α-pp42/44; dilution of 1:10000, and α-pp38; dilution 1:5 000, New England BioLabs, Beverly, Mass.). Membranes were washed with TTBS, and incubated at room temperature with an anti-rabbit IgG antibody coupled to horseradish peroxidase (dilution 1:10 000–1:20 000, Santa Cruz Biotechnology) in 0.5% Blotto-TTBS for 30 minutes. […]

p42/44 MAPK = assay: Western blot of p42/44 MAPK phosphorylation in PSMC; format: cell-based, porcine
Method: as §1
Confluent PAEC and PSMC were preteated with or without antisense sequences as described above for Western Blot analysis. Cells were rinsed twice with ice-cold DMEM. PSMC and PAEC were stimulated with or without 17βE (10^−8 mol/L) as previously described (Geraldes P). […] Same quantity of protein was separated by a 10% gradient SDS-PAGE (Protean II kit; Bio-Rad), and transblotted onto a 0.45-μm polyvinylidene difluoride membranes (Millipore Corp.). […]

[1] = local delivery upon porcine coronary angioplasty; cited from earlier work
[2] = 17βE 10^−8 mol/L 30 minutes, Example 2
[3] = substance alone, data not shown

O=C(c1ccc(OCN2CCCCC2)cc1)c1c(-c2ccc(O)cc2)sc2cc(O)ccc12 [Ral, Raloxifen]
reversal of the effect of 17βE on p38 MAPK induced by PDGF-BB (p38 MAPK; PDGF-BB 30 min): 32%

CC/C(=C(\c1ccccc1)c1ccc(OCCN(C)C)cc1)c1ccccc1 [Tam, Tamoxifen]
reversal of the effect of 17βE on p38 MAPK induced by PDGF-BB (p38 MAPK; PDGF-BB 30 min): 51%

CC/C(=C(\c1ccc(O)cc1)c1ccc(OCCN(C)C)cc1)c1ccccc1 [4-OHT, 4-OH-Tamoxifen]
reversal of the effect of 17βE on p38 MAPK induced by PDGF-BB (p38 MAPK; PDGF-BB 30 min): 53%

C[C@]12CC[C@@H]3c4ccc(O)cc4CC[C@H]3[C@@H]1CC[C@@H]2O [17βE, 17-beta-estradiol]
time of maximum inhibition of PDGF-BB-induced p42/44 MAPK phosphorylation (p42/44 MAPK; 17βE 10^−8M pretreatment, PDGF-BB 5 minutes): 30 min
reversal of PDGF-BB-increased p42/44 MAPK phosphorylation (p42/44 MAPK; [2]): reversed
reduction of PDGF-BB induced phosphorylation of p42/44 MAPK (p42/44 MAPK; 17βE for 30 min): 100%
change in basal phosphorylation of p42/44 MAPK (p42/44 MAPK; [3]): did not observe any change
reduction of the degree of restenosis [1]: up to 50%
reversal of PDGF-BB-increased p38 MAPK phosphorylation (p38 MAPK; [2]): reversed
inhibition of PDGF-BB-mediated p38 MAPK phosphorylation (p38 MAPK; 17βE (10^−8M) pretreatment 30 minutes, PDGF-BB 30 min): 85%
reduction of PDGF-BB induced phosphorylation of p38 MAPK (p38 MAPK; 17βE for 30 min): 85%
change in basal phosphorylation of p38 MAPK (p38 MAPK; [3]): did not observe any change
